From article PMC8541628, “Development of Novel Quinoline-Based Sulfonamides as Selective Cancer-Associated Carbonic Anhydrase Isoform IX Inhibitors” (International Journal of Molecular Sciences, 2021)

What was measured:
hCA II = hCA II (Homo sapiens, UniProt P00918); test: stopped flow carbon dioxide hydrase assay, hCA II
hCA IX = hCA IX (Homo sapiens, UniProt Q16790); test: stopped flow carbon dioxide hydrase assay, hCA IX; settings: for Selectivity ratio I/IX: hCA IX over hCA I; for Selectivity ratio II/IX: hCA IX over hCA II
hCA XII = hCA XII (Homo sapiens, UniProt O43570); test: stopped flow carbon dioxide hydrase assay, hCA XII; settings: for Selectivity ratio I/XII: hCA XII over hCA I; for Selectivity ratio II/XII: hCA XII over hCA II
hCA I = hCA I (Homo sapiens, UniProt P00915); test: stopped flow carbon dioxide hydrase assay, hCA I
MDA-MB-231 = test: 72 h MTT anti-proliferative assay under hypoxic conditions, MDA-MB-231; type: cell-based; settings: Homo sapiens, mean ± S.D. of three experiments
Excerpt: (§1) 1. Carbonic anhydrase inhibition assay
The enzymes are recombinant proteins prepared in our lab.
parameters and inhibition constants.
2. Anti-proliferative action toward human breast cell lines

MCF-7 = test: 72 h MTT anti-proliferative assay under hypoxic conditions, MCF-7; type: cell-based; settings: Homo sapiens, MCF7, mean ± S.D. of three experiments
Procedure: Therefore, QBS 11c and 13b were further screened for their potential in vitro anti-proliferative action against two breast cancer cell lines (MDA-MB-231 and MCF-7) under hypoxic conditions, exploiting a 72 h MTT assay protocol and using Doxorubicin as a positive control drug.
All adopted procedures for the conducted in vitro biological assays were performed as described earlier; CA (stopped-flow), cytotoxicity (MTT [37, 38]), and assessment of apoptotic markers assays, as well as induction of hypoxia with cobalt chloride, and were mentioned in the Supporting Materials.
as §1
16) herein reported have were assayed utilizing an instrument of Applied Photophysics stopped-flow. The enzymes are recombinant proteins prepared in our lab. Phenol red (at a concentration of 0.2 mM) has been used as indicator, working at the absorbance maximum of 557 nm, with 20 mM Hepes (pH 7.5) as buffer, and 20 mM Na2SO4 (for maintaining constant the ionic strength), […]
parameters and inhibition constants. For each inhibitor at least six traces of the initial 5-10% of the reaction have been used for determining the initial velocity . Th e un cat aly zed rates were determined in the same manner and subtracted from the total observed rates. Stock solutions of inhibitor (0.1 mM) were prepared in distilled-deionized water and dilutions up to 0.01 nM were done thereafter with the assay buffer. Inhibitor and enzyme solutions were preincubated together for 15 min at room temperature prior to assay, in order to allow fo r the formation of the E-I complex. […]
Cells were sub-cultured with try psine /EDTA solution, counted with haemocy tometer and plated onto 96-well plates (5000 cells/well) and left overnight to form a semi-confluent […]
monolay er. […] DMSO (100 µl/well) was added to dissolve the formazan crystals with shaking for 10 min after which the absorbance was read at 590 nm against no cell blanks on a FLuo Star Optima microplate reader (BMG technologies, Germany). Cell proliferation was calculated comparing the OD values of the DMSO control wells and those of the samples

Sequence of hCA I (P00915 whole entry): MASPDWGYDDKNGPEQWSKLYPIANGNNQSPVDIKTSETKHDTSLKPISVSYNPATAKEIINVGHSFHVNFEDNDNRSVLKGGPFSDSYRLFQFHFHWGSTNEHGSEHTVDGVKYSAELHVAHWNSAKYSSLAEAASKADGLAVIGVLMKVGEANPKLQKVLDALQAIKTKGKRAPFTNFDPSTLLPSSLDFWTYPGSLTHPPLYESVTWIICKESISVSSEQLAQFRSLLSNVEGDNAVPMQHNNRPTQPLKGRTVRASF
Sequence of hCA XII (O43570 25-354): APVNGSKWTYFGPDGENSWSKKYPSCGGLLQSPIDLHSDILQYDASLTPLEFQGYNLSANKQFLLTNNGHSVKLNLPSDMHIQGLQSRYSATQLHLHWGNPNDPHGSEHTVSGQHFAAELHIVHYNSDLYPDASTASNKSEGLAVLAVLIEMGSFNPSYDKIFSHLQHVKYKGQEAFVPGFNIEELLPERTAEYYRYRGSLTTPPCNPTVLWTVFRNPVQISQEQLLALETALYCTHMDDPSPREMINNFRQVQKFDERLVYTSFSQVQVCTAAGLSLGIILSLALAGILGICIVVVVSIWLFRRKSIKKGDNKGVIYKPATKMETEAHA

Structure (SMILES)	Ki (hCA II) [nM]	Ki (hCA IX) [nM]	Selectivity ratio I/IX (hCA IX)	Selectivity ratio II/IX (hCA IX)	Ki (hCA XII) [nM]	Selectivity ratio I/XII (hCA XII)	Selectivity ratio II/XII (hCA XII)	Ki (hCA I) [nM]	melting point [°C]	IC50 (MDA-MB-231) [nM]	IC50 (MCF-7) [nM]
COc1ccc2nccc(Nc3ccc(C)c(S(N)(=O)=O)c3)c2c1 [11f, 5-((6-methoxyquinolin-4-yl)amino)-2-methylbenzenesulfonamide]	998	853	2.6	1.2	152	14.8	6.6	2260	248 to 250		
NS(=O)(=O)c1ccccc1Nc1ccnc2ccc(Cl)cc12 [9c, 2-((6-chloroquinolin-4-yl)amino)benzenesulfonamide]	86.8	65.6	18.9	1.3	38.4	32.3	2.3	1240	258 to 260		
COc1ccc2nccc(Nc3ccccc3S(N)(=O)=O)c2c1 [9b, 2-((6-methoxyquinolin-4-yl)amino)benzenesulfonamide]	49.7	39.2	22.1	1.3	42.1	20.5	1.2	864	275 to 277		
Cc1ccc2nccc(Nc3ccc(S(N)(=O)=O)cc3)c2c1 [13a, 4-((6-methylquinolin-4-yl)amino)benzenesulfonamide]	36.5	25.8	3.0	1.4	9.8	8.0	3.7	78.4	270 to 272		
COc1ccc2nccc(Nc3cccc(S(N)(=O)=O)c3)c2c1 [11b, 3-((6-methoxyquinolin-4-yl)amino)benzenesulfonamide]	366	86.5	3.0	4.2	73.1	3.5	5.0	258	244 to 246		
NS(=O)(=O)c1ccc(Nc2ccnc3ccc(Cl)cc23)cc1 [13c, 4-((6-chloroquinolin-4-yl)amino)benzenesulfonamide]	7.3	18.6	3.0	0.4	8.7	6.4	0.8	55.4	284 to 286		
NS(=O)(=O)c1cccc(Nc2ccnc3cc(C(F)(F)F)cc(C(F)(F)F)c23)c1 [11d, 3-((5,7-bis(trifluoromethyl)quinolin-4-yl)amino)benzenesulfonamide]	221	52.9	2.0	4.2	34	3.1	6.5	105	172 to 174		
COc1ccc2nccc(NNC(=O)c3ccc(S(N)(=O)=O)cc3)c2c1 [compound 16, 4-(2-(6-Methoxyquinolin-4-yl)hydrazine-1-carbonyl)benzenesulfonamide]	31.1	21.7	3.8	1.4	25.4	3.2	1.2	81.4	228 to 230		
Cc1ccc2nccc(Nc3ccc(C)c(S(N)(=O)=O)c3)c2c1 [11e, 2-methyl-5-((6-methylquinolin-4-yl)amino)benzenesulfonamide]	1500	104	33.8	14.5	88.1	39.7	17.1	3500	280 to 282		
Cc1ccc2nccc(Nc3ccccc3S(N)(=O)=O)c2c1 [9a, 2-((6-methylquinolin-4-yl)amino)benzenesulfonamide]	78.4	36.4	15.3	2.2	22.8	24.5	3.4	558	264 to 265		
Cc1ccc2nccc(Nc3cccc(S(N)(=O)=O)c3)c2c1 [11a, 3-((6-methylquinolin-4-yl)amino)benzenesulfonamide]	265	70.1	9.5	3.8	41.2	16.1	6.4	663	272 to 274		
Cc1ccc(Nc2ccnc3ccc(Cl)cc23)cc1S(N)(=O)=O [11g, 5-((6-chloroquinolin-4-yl)amino)-2-methylbenzenesulfonamide]	2360	116	38.9	20.3	92.7	48.8	25.4	4520	282 to 285		
COc1cccc2c1C(=O)c1c(O)c3c(c(O)c1C2=O)C[C@@](O)(C(=O)CO)C[C@@H]3O[C@H]1C[C@H](N)[C@H](O)[C@H](C)O1 [Doxorubicin, reference compound]										1670 ± 80	3040 ± 140
NS(=O)(=O)c1ccccc1Nc1ccnc2cc(C(F)(F)F)cc(C(F)(F)F)c12 [9d, 2-((5,7-bis(trifluoromethyl)quinolin-4-yl)amino)benzenesulfonamide]	112							1560			
